These results are taken from ChEMBL document CHEMBL5365435, “Design, Synthesis, and Biological Evaluation of Thioglucoside Analogues of Gliflozin as Potent New Gliflozin Drugs” (J Med Chem, 2023).

Activity calls are given as the source filed them. No cut-off for these calls is given here. Bounds are passed on as bounds.

The test system of series [1] is HEK293. The experiment in a line: Cytotoxicity against HEK293 cells at 100 uM incubated for 24 hrs by MTT assay. It counts as toxicity, cell-based. The settings on record: human, hek293, 24 h. Background: Formazan colour is commonly taken as a measure of viable cells.
Series [2] deals with T1, Sodium/glucose cotransporter 2 (Homo sapiens, UniProt P31639).
T1 sequence (P31639 whole entry): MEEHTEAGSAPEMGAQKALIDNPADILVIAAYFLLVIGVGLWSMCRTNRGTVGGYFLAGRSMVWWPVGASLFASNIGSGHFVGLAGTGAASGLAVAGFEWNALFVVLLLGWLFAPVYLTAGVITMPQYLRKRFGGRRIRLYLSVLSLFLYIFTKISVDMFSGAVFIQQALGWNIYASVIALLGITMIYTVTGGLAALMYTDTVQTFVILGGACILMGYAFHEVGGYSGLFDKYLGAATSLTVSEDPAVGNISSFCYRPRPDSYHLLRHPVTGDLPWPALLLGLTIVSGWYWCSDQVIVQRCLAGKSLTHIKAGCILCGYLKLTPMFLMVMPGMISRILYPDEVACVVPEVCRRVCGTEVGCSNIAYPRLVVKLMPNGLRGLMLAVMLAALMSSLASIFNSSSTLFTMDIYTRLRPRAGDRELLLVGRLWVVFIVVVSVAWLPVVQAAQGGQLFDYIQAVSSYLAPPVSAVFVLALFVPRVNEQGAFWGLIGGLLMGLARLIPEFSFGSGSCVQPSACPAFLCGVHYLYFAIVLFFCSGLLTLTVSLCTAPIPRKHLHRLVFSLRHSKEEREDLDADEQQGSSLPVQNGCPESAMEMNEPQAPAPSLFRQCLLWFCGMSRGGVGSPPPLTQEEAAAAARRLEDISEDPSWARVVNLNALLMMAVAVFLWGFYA
The experiment in a line: Inhibition of SGLT2 (unknown origin).

In series [3] the target is T2, Sodium/glucose cotransporter 2 (Homo sapiens) (UniProt P31639).
T2 sequence (whole entry): T1 sequence (P31639 whole entry)
The experiment in a line: Inhibition of SGLT2 in HEK293 cells assessed as 2-NBDG uptake at 100 uM preincubated for 1 hr followed by 2-NBDG addition and measured after 1 hr relative to control. Particulars: time 2.0 hrs. The series is classed as cell-based.

The nature of series [4]: Half life in mouse at 3 mg/kg, po by LC analysis. The series is classed as ADME, organism-based. Particulars: in vivo.
The nature of series [5]: Cmax in mouse at 3 mg/kg, po by LC analysis. It counts as ADME, organism-based. Details: dose 3 mg/kg, route po. Particulars: in vivo.
Series [6] deals with Mus musculus. As to the kind of experiment: Antidiabetic activity against C57BL/6J mouse assessed as decrease in blood glucose level at 3 mg/kg, po measured upto 8 hrs by glucometer analysis. The series is classed as functional, organism-based.
Series [7] in a line: AUCinfinity in mouse at 3 mg/kg, po by LC analysis. The series is classed as ADME, organism-based. Details: dose 3 mg/kg, route po. The settings on record: in vivo.
Series [8] in a line: Tmax in mouse at 3 mg/kg, po by LC analysis. The series is classed as ADME, organism-based. The settings on record: in vivo.
Series [9] relates to Mus musculus. The experiment in a line: Antidiabetic activity against C57BL/6J mouse assessed as decrease in renal glucose level at 3 mg/kg, po measured upto 8 hrs by glucometer analysis. It counts as functional, organism-based.
Series [10] concerns the target T2, Sodium/glucose cotransporter 2 (Homo sapiens). As to the kind of experiment: Inhibition of SGLT2 (unknown origin) at 100 uM relative to control.

As usually defined, the IC50 is the concentration needed to halve the response being measured. One may read the inhibition as the relative decrease from the control value, in per cent. Turning to `CCOc1ccc(Cc2c(Cl)cccc2S[C@@H]2O[C@H](CO)[C@@H](O)[C@H](O)[C@H]2O)cc1`, in series [1], the Activity result is “Non-Toxic”. In [2], this compound displayed an IC50 of 2.6 nM. Also, in series [3], the inhibition is more than 90%.

With `Cc1cccc(S[C@@H]2O[C@H](CO)[C@@H](O)[C@H](O)[C@H]2O)c1Cc1ccc(-c2ccc(F)cc2)s1`, the Activity result in series [1] is on record as “Non-Toxic”. In addition, the IC50 in series [2] stood at 2.5 nM. Further, the inhibition in [3] was more than 90%.

Usually half-life stands for the time in which the quantity being followed falls by half. A lower half-life goes with rapid decline. In general, Cmax refers to the maximum level reached in the sampled fluid or tissue. What is called AUC(0-inf) is total exposure, with the tail of the curve extrapolated. High values mean high exposure, low ones low exposure. The Tmax is the time at which the peak concentration occurs. `OC[C@H]1O[C@@H](Sc2cccc(Cl)c2Cc2ccc(O[C@H]3CCOC3)cc2)[C@H](O)[C@@H](O)[C@@H]1O` gave a half-life in [4] of 3.67 h. The peak concentration (Cmax) in series [5] was 4200 ng/mL. Moreover, the outcome in series [6] and in series [9] was Active. The Activity entry in series [1] is recorded as “Non-Toxic”. The compound further displayed an AUC(0-inf) in series [7] of 12800 ng·h/mL. Also, the Tmax in series [8] came out at 1 h. In series [2], this compound came in with a half-maximal inhibitory concentration (IC50) of 2 nM. Besides, the inhibition in series [3] is more than 90%.

On to `CCOc1ccc(Cc2cc(S[C@@H]3O[C@H](CO)[C@@H](O)[C@H](O)[C@H]3O)ccc2Cl)cc1`, for which, in series [1], the Activity entry is “Non-Toxic”. Further, in series [3], the inhibition is 57%.

On to `OC[C@H]1O[C@@H](Sc2ccc(Cl)c(Cc3ccc(O[C@H]4CCOC4)cc3)c2)[C@H](O)[C@@H](O)[C@@H]1O`, for which, in [1], the Activity entry is “Non-Toxic”. For the same compound, the inhibition in series [10] and in series [3] was 62% in each case.

`CCOC(=O)OC[C@H]1O[C@@H](Oc2ccccc2Cc2ccc(OC)cc2)[C@H](O)[C@@H](O)[C@@H]1O` [SERGLIFLOZIN ETABONATE] yielded an IC50 in series [2] of 7.5 nM.

In turn, `Cc1ccc([C@@H]2O[C@H](CO)[C@@H](O)[C@H](O)[C@H]2O)cc1Cc1ccc(-c2ccc(F)cc2)s1` [CANAGLIFLOZIN ANHYDROUS] showed a concentration for half-maximal inhibition (IC50) in [2] of 2.4 nM. The inhibition in [3] is more than 90%.

As to `COc1ccc(Cc2ccccc2S[C@@H]2O[C@H](CO)[C@@H](O)[C@H](O)[C@H]2O)cc1`, the Activity entry in series [1] is on record as “Non-Toxic”. Further, the half-maximal inhibitory concentration (IC50) in series [2] turned out to be 5.9 nM. Besides, the inhibition in series [3] is more than 90%.

For the compound `Cc1ccc(S[C@@H]2O[C@H](CO)[C@@H](O)[C@H](O)[C@H]2O)cc1Cc1ccc(-c2ccc(F)cc2)s1`, the Activity entry in series [1] was “Non-Toxic”. Moreover, the inhibition in series [3] was 54%.

`COc1ccc(Cc2ccccc2O[C@@H]2O[C@H](CO)[C@@H](O)[C@H](O)[C@H]2O)cc1` [SERGLIFLOZIN A] had a half-maximal inhibitory concentration (IC50) in [2] of 7.5 nM. This lies in the single-digit nanomolar range.

In the case of `OC[C@H]1O[C@@H](c2ccc(Cl)c(Cc3ccc(O[C@H]4CCOC4)cc3)c2)[C@H](O)[C@@H](O)[C@@H]1O`, the outcome in [6] and in series [9] was Active.

In [2], `Cc1cc(O)c(C(=O)CCc2ccc3occc3c2)c(O[C@@H]2O[C@H](CO)[C@@H](O)[C@H](O)[C@H]2O)c1` came in with a half-maximal inhibitory concentration (IC50) of 4.4 nM. This lies in the single-digit nanomolar range.
